These are literature values, as cited in patent publication US7687492B2, “1,2,4-Oxadiazole derivatives as dipeptidyl peptidase-IV inhibitors for the treatment or prevention of diabetes” (Merck Sharp & Dohme Corp., priority 2004, dated 2010).

For data set [1], the target named is T1, DP-IV (Homo sapiens, UniProt P27487).
T1 construct: GRF is rapidly degraded in plasma to GRF[3-44]; host or cells: plasma (endogenous enzyme activity)

The conditions of data set [2]: mouse, cyclophosphamide-induced neutropenia; WO 99/56753.
The conditions of data set [3]: rats; Transplantation, 63: 1495-1500 (1997).

T1 sequence (P27487 whole entry): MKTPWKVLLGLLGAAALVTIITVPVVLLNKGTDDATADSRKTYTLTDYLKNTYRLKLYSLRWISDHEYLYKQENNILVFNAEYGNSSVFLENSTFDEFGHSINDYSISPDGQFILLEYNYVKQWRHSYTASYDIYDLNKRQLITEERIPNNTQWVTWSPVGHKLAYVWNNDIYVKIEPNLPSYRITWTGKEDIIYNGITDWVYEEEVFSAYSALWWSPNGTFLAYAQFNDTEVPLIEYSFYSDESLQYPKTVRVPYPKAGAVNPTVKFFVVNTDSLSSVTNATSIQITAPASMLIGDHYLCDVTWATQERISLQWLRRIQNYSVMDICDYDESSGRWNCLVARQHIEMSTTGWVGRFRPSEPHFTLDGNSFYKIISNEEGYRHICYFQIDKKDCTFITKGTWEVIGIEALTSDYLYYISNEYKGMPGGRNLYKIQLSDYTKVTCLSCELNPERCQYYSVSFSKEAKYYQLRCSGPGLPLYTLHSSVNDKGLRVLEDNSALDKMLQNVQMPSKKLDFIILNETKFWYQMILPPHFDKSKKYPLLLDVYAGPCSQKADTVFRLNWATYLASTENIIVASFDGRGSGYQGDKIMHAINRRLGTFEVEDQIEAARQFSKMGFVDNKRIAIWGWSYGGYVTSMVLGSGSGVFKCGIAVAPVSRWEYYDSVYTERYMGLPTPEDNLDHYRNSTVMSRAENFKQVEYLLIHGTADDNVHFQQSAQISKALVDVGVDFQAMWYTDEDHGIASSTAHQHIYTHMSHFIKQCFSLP

On to diprotin A, for which the “degradation of GRF in plasma to GRF[3-44]” value in data set [1] is reported as “prevented”.
Take `CC(C)[C@H](N)C(=O)N1CCC[C@H]1B(O)O` [Val-Boro-Pro]: the hematopoiesis result in data set [2] is “stimulated hematopoiesis”.
On to `CC(C)N1CCC(c2ccccc2)(c2ccccc2)CC1` [Prodipine, Pro-Pro-diphenyl-phosphonate], for which the cardiac allograft survival entry in data set [3] is recorded as “double cardiac allograft survival in rats from day 7 to day 14”.
